Experiment: xn = mol fraction of the nth substance listed
Details: 101 kPa, Liquid, Vibrating tube method

NCCN [ethane-1,2-diamine] + O
mass density [kg/m3]
Details | 288.15 K | 298.15 K | 308.15 K | 323.15 K | 333.15 K
x1 = 0.002 | – | 996.85 | 993.82 | 987.81 | 982.96
x1 = 0.0033 | – | 996.68 | 993.64 | 987.61 | 982.75
x1 = 0.0047 | – | 996.5 | 993.43 | 987.39 | 982.53
x1 = 0.0072 | – | 996.2 | 993.09 | 987 | 982.12
x1 = 0.009 | – | 995.97 | 992.86 | 986.75 | 981.85
x1 = 0.0123 | – | 995.55 | 992.39 | 986.24 | 981.3
x1 = 0.0222 | – | 994.61 | 991.25 | 984.89 | 979.82
x1 = 0.0436 | – | 993.31 | 989.53 | 982.66 | 977.37
x1 = 0.0609 | – | 992.96 | 988.77 | 981.44 | 975.89
x1 = 0.0827 | – | 993.06 | 988.38 | 980.39 | 974.47
x1 = 0.106 | – | 993.56 | 988.34 | 979.64 | 973.29
x1 = 0.1481 | – | 994.9 | 988.68 | 978.7 | 971.62
x1 = 0.2063 | – | 995.33 | 987.95 | 976.41 | 968.4
x1 = 0.2513 | – | 993.49 | 985.55 | 973.14 | 964.58
x1 = 0.3148 | – | 985.82 | 978.7 | 964.84 | 956.48
x1 = 0.3258 | – | 985.17 | – | – | –
x1 = 0.341 | – | 984.26 | 975.15 | 961.96 | 952.88
x1 = 0.4038 | – | 974.96 | 965.9 | 952.12 | 942.8
x1 = 0.4489 | – | 967.22 | 958.22 | 944.49 | 935.14
x1 = 0.4928 | – | 959.94 | 950.76 | 936.96 | 927.53
x1 = 0.5468 | – | 950.96 | 942.44 | 928.02 | 918.58
x1 = 0.5907 | – | 943.88 | 934.72 | 920.79 | 911.42
x1 = 0.6361 | 945.77 | 936.87 | 927.73 | 913.79 | 904.37
x1 = 0.6843 | 938.88 | 929.8 | 920.72 | 906.8 | 897.38
x1 = 0.7386 | 931.34 | 922.53 | 913.33 | 899.31 | 889.84
x1 = 0.7954 | 924.08 | 914.93 | 905.7 | 891.79 | 882.31
x1 = 0.81 | 922.08 | 912.91 | 903.69 | 889.66 | 880.16
x1 = 0.8505 | 917.35 | 908.14 | 898.88 | 884.84 | 875.33
x1 = 0.898 | 912.03 | 902.85 | 893.62 | 879.53 | 870.05
x1 = 0.9282 | 908.76 | 899.58 | 890.26 | 876.1 | 866.59
x1 = 0.9584 | 905.56 | 896.29 | 886.94 | 872.76 | 863.2
x1 = 0.9678 | 904.59 | 895.3 | 885.94 | 871.75 | 862.17
x1 = 0.9793 | 903.4 | 894.08 | 884.7 | 870.49 | 860.9
x1 = 1 | 901.26 | 891.9 | 882.49 | 868.23 | 858.6
